Our source for the IC50 and Kd values is patent US9725465B2, “Biaryl acetamide compounds and methods of use thereof” (Ambit Biosciences Corporation, priority 2013, dated 2017).

SMILES strings stand for the structures.

One assay has as its target FLT3-ITD (Homo sapiens (Human), UniProt P36888, INS600HVDFREYEYD). The assay can be described thus: pFLT3 MSD assay, Ba/F3 FLT3-ITD. The assay is classed as cell-based. The settings on record: Ba/F3 FLT3-ITD cells, 2 hours, read-out: BaF3-FLT3-ITD pFlt3 IC50.
The next assay addresses FLT3 kinase (Homo sapiens (Human), UniProt P36888). The assay can be described thus: Competition binding assay (Kd), FLT3. The settings on record: competition binding.
Another assay concerns the target KIT kinase (Homo sapiens (Human), UniProt P10721). The assay can be described thus: Competition binding assay (Kd), KIT. The settings on record: competition binding. A digest of the protocol:
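Kinase, as T7 phage fusion or HEK-293-expressed DNA-tagged protein, competed off immobilised ligand beads by test compound (eleven-point threefold dilutions, from 100× DMSO stocks). Eluted kinase quantified by qPCR to derive Kd; DMSO used as control.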

FLT3-ITD, sequence (P36888 other isoform, or with tags, fused parts or gaps limits assumed, stated change not applied): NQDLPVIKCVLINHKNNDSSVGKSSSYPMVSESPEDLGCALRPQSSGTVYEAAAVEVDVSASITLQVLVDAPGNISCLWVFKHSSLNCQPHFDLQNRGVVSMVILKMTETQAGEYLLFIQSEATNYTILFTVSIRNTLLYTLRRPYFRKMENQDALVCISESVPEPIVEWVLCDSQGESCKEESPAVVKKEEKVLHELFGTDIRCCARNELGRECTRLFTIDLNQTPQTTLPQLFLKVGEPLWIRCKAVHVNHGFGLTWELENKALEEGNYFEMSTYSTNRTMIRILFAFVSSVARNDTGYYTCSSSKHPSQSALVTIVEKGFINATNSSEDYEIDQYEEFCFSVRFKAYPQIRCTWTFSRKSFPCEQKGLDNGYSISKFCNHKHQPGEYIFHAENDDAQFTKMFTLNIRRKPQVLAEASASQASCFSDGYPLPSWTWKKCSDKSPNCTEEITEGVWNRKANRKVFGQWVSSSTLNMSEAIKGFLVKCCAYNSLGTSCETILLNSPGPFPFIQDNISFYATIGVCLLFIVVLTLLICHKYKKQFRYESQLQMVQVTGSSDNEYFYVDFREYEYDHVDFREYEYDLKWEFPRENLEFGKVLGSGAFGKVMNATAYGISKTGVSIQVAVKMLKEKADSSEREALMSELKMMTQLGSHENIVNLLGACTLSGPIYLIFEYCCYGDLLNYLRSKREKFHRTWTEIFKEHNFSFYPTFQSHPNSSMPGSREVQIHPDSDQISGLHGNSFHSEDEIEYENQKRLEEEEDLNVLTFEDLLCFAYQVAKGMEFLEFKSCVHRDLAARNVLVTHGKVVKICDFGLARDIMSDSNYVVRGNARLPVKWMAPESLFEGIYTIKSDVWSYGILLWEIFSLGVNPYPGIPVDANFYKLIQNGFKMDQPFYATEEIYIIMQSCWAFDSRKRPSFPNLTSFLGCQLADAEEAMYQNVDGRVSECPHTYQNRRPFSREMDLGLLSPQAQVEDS
FLT3 kinase, sequence (P36888 27-993): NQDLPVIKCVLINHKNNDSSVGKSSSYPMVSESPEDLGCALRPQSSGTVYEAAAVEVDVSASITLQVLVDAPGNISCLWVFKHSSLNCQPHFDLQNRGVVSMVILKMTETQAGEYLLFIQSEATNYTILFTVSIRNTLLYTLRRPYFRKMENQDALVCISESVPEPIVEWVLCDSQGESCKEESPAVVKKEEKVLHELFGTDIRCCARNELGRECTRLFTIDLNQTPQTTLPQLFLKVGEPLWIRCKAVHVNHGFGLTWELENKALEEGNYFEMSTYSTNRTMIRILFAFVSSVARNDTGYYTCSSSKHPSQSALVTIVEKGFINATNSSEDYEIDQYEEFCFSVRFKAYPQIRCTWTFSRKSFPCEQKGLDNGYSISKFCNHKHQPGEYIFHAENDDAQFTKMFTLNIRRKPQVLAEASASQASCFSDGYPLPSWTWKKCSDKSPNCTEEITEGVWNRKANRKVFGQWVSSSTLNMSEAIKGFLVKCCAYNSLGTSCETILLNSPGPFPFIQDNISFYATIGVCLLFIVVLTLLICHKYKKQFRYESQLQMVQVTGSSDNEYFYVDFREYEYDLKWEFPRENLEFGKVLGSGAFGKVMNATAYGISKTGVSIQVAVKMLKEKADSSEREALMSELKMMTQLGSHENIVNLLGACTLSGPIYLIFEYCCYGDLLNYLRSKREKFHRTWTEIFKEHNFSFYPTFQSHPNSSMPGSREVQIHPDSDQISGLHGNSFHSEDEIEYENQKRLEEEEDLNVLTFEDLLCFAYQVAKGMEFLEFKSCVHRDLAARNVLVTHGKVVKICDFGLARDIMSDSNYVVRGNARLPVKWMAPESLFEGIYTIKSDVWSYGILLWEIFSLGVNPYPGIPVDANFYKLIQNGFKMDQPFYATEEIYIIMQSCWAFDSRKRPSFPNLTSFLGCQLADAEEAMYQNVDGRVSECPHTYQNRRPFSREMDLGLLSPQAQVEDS
KIT kinase, sequence (P10721 26-976): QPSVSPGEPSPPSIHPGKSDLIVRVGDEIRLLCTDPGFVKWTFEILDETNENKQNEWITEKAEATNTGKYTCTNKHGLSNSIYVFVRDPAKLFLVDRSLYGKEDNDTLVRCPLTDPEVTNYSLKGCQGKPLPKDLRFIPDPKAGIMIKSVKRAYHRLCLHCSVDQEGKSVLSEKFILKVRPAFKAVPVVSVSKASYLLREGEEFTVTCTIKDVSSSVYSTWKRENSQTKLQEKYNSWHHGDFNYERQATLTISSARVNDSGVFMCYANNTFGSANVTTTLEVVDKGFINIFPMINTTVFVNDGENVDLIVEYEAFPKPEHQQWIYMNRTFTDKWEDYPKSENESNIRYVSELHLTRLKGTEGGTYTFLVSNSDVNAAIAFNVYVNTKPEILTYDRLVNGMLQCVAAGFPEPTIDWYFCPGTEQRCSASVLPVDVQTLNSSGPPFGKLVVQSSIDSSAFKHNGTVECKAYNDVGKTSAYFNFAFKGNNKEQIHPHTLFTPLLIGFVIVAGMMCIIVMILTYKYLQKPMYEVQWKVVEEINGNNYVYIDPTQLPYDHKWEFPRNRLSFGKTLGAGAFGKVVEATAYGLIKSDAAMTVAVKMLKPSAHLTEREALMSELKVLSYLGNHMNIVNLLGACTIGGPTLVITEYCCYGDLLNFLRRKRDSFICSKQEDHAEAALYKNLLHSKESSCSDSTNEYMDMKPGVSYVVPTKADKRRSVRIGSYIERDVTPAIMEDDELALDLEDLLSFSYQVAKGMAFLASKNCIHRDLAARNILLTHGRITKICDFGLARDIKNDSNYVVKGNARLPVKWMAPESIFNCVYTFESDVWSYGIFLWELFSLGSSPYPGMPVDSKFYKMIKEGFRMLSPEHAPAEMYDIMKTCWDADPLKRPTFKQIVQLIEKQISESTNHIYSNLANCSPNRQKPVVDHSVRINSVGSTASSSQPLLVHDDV
Description for FLT3-ITD: In certain other embodiments, the compounds disclosed herein are tested in a FLT3 phosphorylation assay to determine their cellular potency against one or both of FLT3-ITD and FLT3 tyrosine kinase domain mutants. In certain embodiments, the FLT3 phosphorylation assay assesses the potency of compounds as FLT3 inhibitors by measuring the reduction in formation of phosphorylated FLT3 in the cells.
Gene constructs containing the human FLT3 sequences FLT3-ITD, FLT3-ITD-F691L, FLT3-ITD-D835V and FLT3-D835V were synthesized by reverse translation of the human protein sequences, with codons optimized for mammalian expression. Sequence of the internal tandem duplication (ITD) was based on the MV4-11 ITD sequence. […] Viruses were transduced into the IL-3-dependent, murine macrophage cell line, Ba/F3, and selected for puromycin resistance and IL-3 independence. All cell lines were cloned by limiting dilution and clones were used for all subsequent cell assays.
Briefly, cell lines were serum starved overnight in media containing 0.5% FBS. Cells were plated at 200,000 cells/well in 96-well round bottom plates in low serum, and 3-fold serial dilutions of test compounds were added for 2 hours at 37° C. […] After an overnight incubation at 4° C. shaking at 450 rpm, plates were washed with MSD wash buffer, and captured FLT3 was detected with biotinylated-anti-phosphotyrosine antibody 4G10 (Millipore) and SulfoTAG-streptavidin (MSD) for 1 hour at room temperature, and read on an MSD SECTOR Imager 6000. Percent remaining phospho-FLT3 in compound-treated cells was normalized to DMSO-treated cells, and IC50s were determined using Igor Pro software. All compounds are assayed in duplicate cell and MSD plates.

As to `COc1cc2ncc(-c3ccc(CC(=O)Nc4cc(C5(C(F)(F)F)CC5)on4)cc3)nc2cc1OC` [Example 1, 2-(4-(6,7-dimethoxyquinoxalin-2-yl)phenyl)-N-(5-(1-(trifluoromethyl)cyclopropyl)isoxazol-3-yl)acetamide], the IC50 (commonly the concentration needed to halve the response being measured) at FLT3-ITD was under 10 nM.
Still for that read-out and setting: with `CC(C)(C)c1cc(NC(=O)Cc2ccc(-c3cnc4[nH]ccc4c3)cc2)no1` [Example 25, 2-(4-(1H-pyrrolo[2,3-b]pyridin-5-yl)phenyl)-N-(5-(tert-butyl)isoxazol-3-yl)acetamide] the figure was under 10 nM; with `CC(C)(c1cc(NC(=O)Cc2ccc(-c3cnc4[nH]ccc4c3)cc2)no1)C(F)(F)F` [Example 26, 2-(4-(1H-pyrrolo[2,3-b]pyridin-5-yl)phenyl)-N-(5-(1,1,1-trifluoro-2-methylpropan-2-yl)isoxazol-3-yl)acetamide], under 10 nM; with `CC(C)(C)c1cc(NC(=O)Cc2ccc(-c3cnc4[nH]ccc4c3)cc2F)no1` [Example 27, N-(5-(tert-butyl)isoxazol-3-yl)-2-(2-fluoro-4-(1H-pyrrolo[2,3-b]pyridin-5-yl)phenyl)acetamide], under 10 nM.
`COc1cc2nc(-c3ccc(CC(=O)Nc4cc(C5(C(F)(F)F)CC5)n[nH]4)c(F)c3)cnc2cc1OCCN1CCOCC1` [Example 230, 2-[2-fluoro-4-[7-methoxy-6-(2-morpholino-ethoxy)quinoxalin-2-yl]phenyl]-N-[3-[1-(trifluoro-methyl)cyclopropyl]-1H-pyrazol-5-yl]acetamide]: the Kd on FLT3 kinase and at KIT kinase was under 5 nM in each case.
`COc1cc2nc(-c3ccc(CC(=O)Nc4cc(C5(C(F)(F)F)CC5)on4)cc3)cnc2cc1OCCN1CCOCC1` [Example 231, 2-[4-[7-methoxy-6-(2-morpholinoethoxy)quinoxalin-2-yl]phenyl]-N-[5-[1-(trifluoromethyl)cyclo-propyl]isoxazol-3-yl]acetamide]: the Kd on FLT3 kinase and on KIT kinase was under 5 nM each time.
With `COc1cc2cc(-c3ccc(CC(=O)Nc4cc(C5(C(F)(F)F)CC5)on4)c(F)c3)cnc2cc1OCCN1CCOCC1` [Example 232, 2-[2-fluoro-4-[6-methoxy-7-(2-morpholinoethoxy)-3-quinolyl]phenyl]-N-[5-[1-(trifluoromethyl)cyclo-propyl]isoxazol-3-yl]acetamide], the Kd at FLT3 kinase and on KIT kinase was under 5 nM in each case.
Turning to `COc1cc2nc(-c3ccc(CC(=O)Nc4cc(C5(C(F)(F)F)CC5)on4)c(F)c3)cnc2cc1C(C)(O)CO` (centres unmarked) [Example 233, 2-[4-[6-(1,2-dihydroxy-1-methyl-ethyl)-7-methoxy-quinoxalin-2-yl]-2-fluoro-phenyl]-N-[5-[1-(trifluoro-methyl)cyclopropyl]isoxazol-3-yl]acetamide], the Kd on FLT3 kinase and on KIT kinase was under 5 nM each time.
As for `COc1cc2ncc(-c3ccc(CC(=O)Nc4cc(C5(C(F)(F)F)CC5)on4)c(F)c3)nc2cc1OCCN1CCOCC1` [Example 234, 2-[2-fluoro-4-[6-methoxy-7-(2-morpholino-ethoxy)quinoxalin-2-yl]phenyl]-N-[5-[1-(trifluoro-methyl)cyclopropyl]isoxazol-3-yl]acetamide], the Kd at FLT3 kinase and at KIT kinase was under 5 nM throughout.
`COc1cc2nc(-c3ccc(CC(=O)Nc4cc(C(C)(C)C(F)(F)F)n[nH]4)c(F)c3)cnc2cc1OCCN1CCOCC1` [Example 235, 2-[2-fluoro-4-[7-methoxy-6-(2-morpholino-ethoxy)quinoxalin-2-yl]phenyl]-N-[3-(2,2,2-trifluoro-1,1-dimethyl-ethyl)-1H-pyrazol-5-yl]acetamide]: the Kd on FLT3 kinase and on KIT kinase was under 5 nM each time.
Consider `COc1cc2ncc(-c3ccc(CC(=O)Nc4cc(C5(C(F)(F)F)CC5)on4)c(F)c3)nc2cc1OCC(O)CO` (centres unmarked) [Example 236, 2-[4-[7-(2,3-dihydroxypropoxy)-6-methoxy-quinoxalin-2-yl]-2-fluoro-phenyl]-N-[5-[1-(trifluoromethyl)cyclo-propyl]isoxazol-3-yl]acetamide], for which the Kd on FLT3 kinase and on KIT kinase was under 5 nM each time.
As for `COc1cc2nc(-c3ccc(CC(=O)Nc4cc(C5(C(F)(F)F)CC5)on4)c(F)c3)cnc2cc1OCCCNC(C)=O` [Example 237, 2-[4-[6-(3-acetamidopropoxy)-7-methoxy-quinoxalin-2-yl]-2-fluoro-phenyl]-N-[5-[1-(trifluoromethyl)cyclo-propyl]isoxazol-3-yl]acetamide], the Kd at FLT3 kinase and on KIT kinase was under 5 nM throughout.
As for `COc1cc2nc(-c3ccc(CC(=O)Nc4cc(C5(C(F)(F)F)CC5)on4)c(F)c3)cnc2cc1OCC(O)CO` (centres unmarked) [Example 238, 2-[4-[6-(2,3-dihydroxypropoxy)-7-methoxy-quinoxalin-2-yl]-2-fluoro-phenyl]-N-[5-[1-(trifluoromethyl)cyclo-propyl]isoxazol-3-yl]acetamide], the Kd at FLT3 kinase and on KIT kinase was under 5 nM each time.
As to `COc1cc2ncc(-c3ccc(CC(=O)Nc4cc(C5(C(F)(F)F)CC5)on4)c(F)c3)nc2cc1OCC(C)(C)O` [Example 239, 2-[2-fluoro-4-[7-(2-hydroxy-2-methyl-propoxy)-6-methoxy-quinoxalin-2-yl]phenyl]-N-[5-[1-(trifluoro-methyl)cyclopropyl]isoxazol-3-yl]acetamide], the Kd on FLT3 kinase and on KIT kinase was under 5 nM throughout.
In the case of `COc1cc2nc(-c3ccc(CC(=O)Nc4cc(C5(C(F)(F)F)CC5)on4)c(F)c3)cnc2cc1OCCN1CCCOCC1` [Example 240, 2-[2-fluoro-4-[7-methoxy-6-[2-(1,4-oxazepan-4-yl)ethoxy]quinoxalin-2-yl]phenyl]-N-[5-[1-(trifluoromethyl)cyclo-propyl]isoxazol-3-yl]acetamide], the Kd on FLT3 kinase and at KIT kinase was under 5 nM throughout.
For `COc1cc2nc(-c3ccc(CC(=O)Nc4cc(C5(C(F)(F)F)CC5)on4)c(F)c3)cnc2cc1OCCN1CCNCC1` [Example 241, 2-[2-fluoro-4-[7-methoxy-6-(2-piperazin-1-ylethoxy)quinoxalin-2-yl]phenyl]-N-[5-[1-(trifluoromethyl)cyclo-propyl]isoxazol-3-yl]acetamide], the Kd at FLT3 kinase and on KIT kinase was under 5 nM in each case.
On to `COc1cc2nc(-c3ccc(CC(=O)Nc4cc(C5(C(F)(F)F)CC5)on4)c(F)c3)cnc2cc1OCCN1CCO[C@H](C)C1` [Example 242, 2-[2-fluoro-4-[7-methoxy-6-[2-[(2R)-2-methylmorpholin-4-yl]ethoxy]quinoxalin-2-yl]phenyl]-N-[5-[1-(trifluoromethyl)cyclo-propyl]isoxazol-3-yl]acetamide], for which the Kd on FLT3 kinase and on KIT kinase was under 5 nM in each case.
As for `COc1cc2nc(-c3ccc(CC(=O)Nc4cc(C5(C(F)(F)F)CC5)on4)c(F)c3)cnc2cc1OCCN1CCOC[C@@H]1C` [Example 243, 2-[2-fluoro-4-[7-methoxy-6-[2-[(3S)-3-methylmorpholin-4-yl]ethoxy]quinoxalin-2-yl]phenyl]-N-[5-[1-(trifluoromethyl)cyclo-propyl]isoxazol-3-yl]acetamide], the Kd at FLT3 kinase and on KIT kinase was under 5 nM throughout.
Consider `COc1cc2nc(-c3ccc(CC(=O)Nc4cc(C5(C(F)(F)F)CC5)on4)c(F)c3)cnc2cc1OCCN1CC2CCC(C1)O2` [Example 244, 2-[2-fluoro-4-[7-methoxy-6-[2-(8-oxa-3-azabicyclo[3.2.1]octan-3-yl)ethoxy]quinoxalin-2-yl]phenyl]-N-[5-[1-(trifluoromethyl)cyclo-propyl]isoxazol-3-yl]acetamide], for which the Kd at FLT3 kinase and at KIT kinase was under 5 nM each time.
In the case of `COc1cc2nc(-c3ccc(CC(=O)Nc4cc(C5(C(F)(F)F)CC5)on4)c(F)c3)cnc2cc1OCCN1C2CCC1COC2` [Example 245, 2-[2-fluoro-4-[7-methoxy-6-[2-(3-oxa-8-azabicyclo[3.2.1]octan-8-yl)ethoxy]quinoxalin-2-yl]phenyl]-N-[5-[1-(trifluoromethyl)cyclo-propyl]isoxazol-3-yl]acetamide], the Kd at FLT3 kinase and on KIT kinase was under 5 nM in each case.
For the compound `COc1cc2nc(-c3ccc(CC(=O)Nc4cc(C(C)(C)C(F)(F)F)on4)c(F)c3)cnc2cc1OCC(C)(C)O` [Example 246, 2-[2-fluoro-4-[6-(2-hydroxy-2-methyl-propoxy)-7-methoxy-quinoxalin-2-yl]phenyl]-N-[5-(2,2,2-trifluoro-1,1-dimethyl-ethyl)isoxazol-3-yl]acetamide], the Kd at FLT3 kinase and on KIT kinase was under 5 nM in each case.
Regarding `COc1cc2nc(-c3ccc(CC(=O)Nc4cc(C5(C(F)(F)F)CC5)on4)c(F)c3)cnc2cc1OCCN1CCOC[C@H]1C` [Example 247, 2-[2-fluoro-4-[7-methoxy-6-[2-[(3R)-3-methylmorpholin-4-yl]ethoxy]quinoxalin-2-yl]phenyl]-N-[5-[1-(trifluoromethyl)cyclo-propyl]isoxazol-3-yl]acetamide], the Kd at FLT3 kinase and at KIT kinase was under 5 nM throughout.
For `COc1cc2nc(-c3ccc(CC(=O)Nc4cc(C5(C(F)(F)F)CC5)on4)c(F)c3)cnc2cc1OCCN1CCO[C@@H](C)C1` [Example 248, 2-[2-fluoro-4-[7-methoxy-6-[2-[(2S)-2-methylmorpholin-4-yl]ethoxy]quinoxalin-2-yl]phenyl]-N-[5-[1-(trifluoromethyl)cyclo-propyl]isoxazol-3-yl]acetamide], the Kd on FLT3 kinase and on KIT kinase was under 5 nM each time.
In the case of `COc1cc2nc(-c3ccc(CC(=O)Nc4cc(C5(C(F)(F)F)CC5)on4)c(F)c3)cnc2cc1OCC(C)(C)O` [Example 249, 2-[2-fluoro-4-[6-(2-hydroxy-2-methyl-propoxy)-7-methoxy-quinoxalin-2-yl]phenyl]-N-[5-[1-(trifluoro-methyl)cyclopropyl]isoxazol-3-yl]acetamide], the Kd on FLT3 kinase and on KIT kinase was under 5 nM each time.
